Measurements as given in patent US8648086B2, “5,6-bicyclic heteroaryl-containing urea compounds as kinase inhibitors” (Ascepion Pharmaceuticals, Inc., priority 2009, dated 2014).

Assays:
[1] = target: T1, PDGFRβ (Homo sapiens, UniProt P09619); test: PDGFRβ cell-based assay (phospho-PDGFRβ ELISA, transfected CHO cells); conditions: compound at 100 nM, read-out: % PDGFRβ kinase activity remains
T1 construct: expressed in transfected cells; host or cells: CHO cells, pcDNA3.1 plasmid
Outline: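 CHO cells transiently transfected with full-length human PDGFRβ, serum-starved overnight in DMEM, then treated 2 h with compound (0.5–500 nM) before 20% FBS stimulation. Lysates of ~5×10^5 cells analysed by sandwich ELISA for phospho- and total PDGFRβ with streptavidin-HRP chemiluminescent detection.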

[2] = test system: A549 human non-small cell lung cancer cells; test: In vivo anti-tumor efficacy, A549 xenograft; conditions: Non-small cell lung cancer A549, nu/nu Balb/c mice, 50 mg/kg oral once per day, n = 2 × 3
Description: (§1) Female (nu/nu) Balb/c athymic mice at 4-6 weeks of age were injected subcutaneously (s.c.) with MDA-MB-231 human breast cancer cells, A549 human non-small cell lung cancer cells, U87-MG human glioblastoma cells, PC-3 human prostate cancer cells, HT-29 human colon cancer, BEL-7404 human hepatocellular carcinoma, or MKN-45 human gastric cancer cells (ATCC, 5×10^6 cells suspended in 100 μl DMEM medium). Treatment was initiated after the tumor mass grown from s.c. implanted tumor cells reached a median volume of 200-400 mm^3. Mice were randomized into groups with three in each group for small-sample efficacy tests such that the median tumor volume is nearly equal among all groups. For large-sample efficacy tests, mice were randomized into groups with thirteen or fourteen in each group. Each group was treated either with compounds (dissolved in 2:1 mixture of PEG400 and 0.01N HCl (v/v)) or without compounds (vehicle only, 2:1 mixture of PEG400 and 0.01N HCl (v/v)) once per day at dose 12.5, 25, 50 or 100 mg/kg by oral gavage. Tumor volumes were assessed at least twice weekly by caliper measurement from the start of treatment. Tumor volume was calculated using the formula ½×L×W^2 (L: length of tumor's long axis, W: length of tumor's short axis). Treatment was applied for at least two weeks or until the tumor volume reaches a size of ˜2500 mm^3 or greater. Mice were humanly sacrificed after the experiment. The efficacy of compounds in reducing tumor growth was assessed by the index Tumor Growth Inhibition (TGI). TGI for a given treatment period was calculated using the group mean tumor volumes according to the formula: TGI=100×(VVehicle—group−VTreatment—group)÷VVehicle—group wherein VVehicle—group represents the mean tumor volume for the group treated with vehicle and VTreatment—group represents the mean tumor volume of the group treated with a compound.

[3] = test system: PC-3 human prostate cancer cells; test: In vivo anti-tumor efficacy, PC-3 xenograft; conditions: Prostate cancer PC-3, nu/nu Balb/c mice, 50 mg/kg oral once per day, n = 2 × 3
Description: as §1

[4] = target: T2, c-Kit (Homo sapiens, UniProt P10721); test: KINOMEscan competition binding assay, c-Kit; conditions: compound at 100 nM; lower number indicates stronger hit
T2 construct: purchased KINOMEscan service (Ambit Biosciences, San Diego)
T2 sequence (P10721 26-976): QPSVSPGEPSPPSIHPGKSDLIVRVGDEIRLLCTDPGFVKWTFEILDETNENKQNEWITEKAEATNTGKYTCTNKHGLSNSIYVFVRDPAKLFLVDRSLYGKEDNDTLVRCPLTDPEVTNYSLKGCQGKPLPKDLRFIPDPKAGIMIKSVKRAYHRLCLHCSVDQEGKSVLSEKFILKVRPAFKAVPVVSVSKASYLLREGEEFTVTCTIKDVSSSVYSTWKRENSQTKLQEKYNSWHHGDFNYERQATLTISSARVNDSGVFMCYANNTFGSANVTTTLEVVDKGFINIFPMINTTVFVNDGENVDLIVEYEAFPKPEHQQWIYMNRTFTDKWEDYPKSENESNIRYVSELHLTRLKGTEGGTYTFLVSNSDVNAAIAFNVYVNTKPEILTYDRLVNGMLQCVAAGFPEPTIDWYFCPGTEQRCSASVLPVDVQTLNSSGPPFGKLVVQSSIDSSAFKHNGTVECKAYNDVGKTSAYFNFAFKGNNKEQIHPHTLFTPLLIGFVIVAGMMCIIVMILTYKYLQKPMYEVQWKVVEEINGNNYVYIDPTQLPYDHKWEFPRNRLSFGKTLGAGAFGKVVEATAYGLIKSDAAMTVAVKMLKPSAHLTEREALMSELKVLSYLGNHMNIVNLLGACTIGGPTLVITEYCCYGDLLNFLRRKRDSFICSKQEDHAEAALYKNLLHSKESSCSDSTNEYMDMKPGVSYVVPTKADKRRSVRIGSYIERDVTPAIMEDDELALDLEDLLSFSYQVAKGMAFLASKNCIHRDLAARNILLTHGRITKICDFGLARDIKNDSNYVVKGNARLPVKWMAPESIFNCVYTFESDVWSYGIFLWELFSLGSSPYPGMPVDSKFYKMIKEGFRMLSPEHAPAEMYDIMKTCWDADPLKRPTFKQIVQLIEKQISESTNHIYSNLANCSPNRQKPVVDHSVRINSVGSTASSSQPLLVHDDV
Description: (§2) A standard competition binding assay can be used to test the ability of a compound of this invention on competing with both intended and unintended kinases in vitro. To screen a compound against a large number of human kinases, a competition binding assay with an active-site dependent binding technology was performed by KINOMEscan service (Ambit Biosciences, San Diego, Cal., USA). Three components were combined in this assay—DNA-tagged kinase, immobilized ligand, and the test compound. The ability of the test compound to compete with the immobilized ligand was measured by quantitative PCR of the DNA of the DNA tag. A number of the compounds of this invention were screened at the concentration of 100 nM by this binding assay, and the results were reported as “% Ctrl,” and the lower number indicates stronger “hit” in this matrix.

[5] = target: T3, CSF-1R (Homo sapiens, UniProt P07333); test: KINOMEscan competition binding assay, CSF-1R; conditions: compound at 100 nM; lower number indicates stronger hit
T3 construct: purchased KINOMEscan service (Ambit Biosciences, San Diego)
T3 sequence (P07333 20-972): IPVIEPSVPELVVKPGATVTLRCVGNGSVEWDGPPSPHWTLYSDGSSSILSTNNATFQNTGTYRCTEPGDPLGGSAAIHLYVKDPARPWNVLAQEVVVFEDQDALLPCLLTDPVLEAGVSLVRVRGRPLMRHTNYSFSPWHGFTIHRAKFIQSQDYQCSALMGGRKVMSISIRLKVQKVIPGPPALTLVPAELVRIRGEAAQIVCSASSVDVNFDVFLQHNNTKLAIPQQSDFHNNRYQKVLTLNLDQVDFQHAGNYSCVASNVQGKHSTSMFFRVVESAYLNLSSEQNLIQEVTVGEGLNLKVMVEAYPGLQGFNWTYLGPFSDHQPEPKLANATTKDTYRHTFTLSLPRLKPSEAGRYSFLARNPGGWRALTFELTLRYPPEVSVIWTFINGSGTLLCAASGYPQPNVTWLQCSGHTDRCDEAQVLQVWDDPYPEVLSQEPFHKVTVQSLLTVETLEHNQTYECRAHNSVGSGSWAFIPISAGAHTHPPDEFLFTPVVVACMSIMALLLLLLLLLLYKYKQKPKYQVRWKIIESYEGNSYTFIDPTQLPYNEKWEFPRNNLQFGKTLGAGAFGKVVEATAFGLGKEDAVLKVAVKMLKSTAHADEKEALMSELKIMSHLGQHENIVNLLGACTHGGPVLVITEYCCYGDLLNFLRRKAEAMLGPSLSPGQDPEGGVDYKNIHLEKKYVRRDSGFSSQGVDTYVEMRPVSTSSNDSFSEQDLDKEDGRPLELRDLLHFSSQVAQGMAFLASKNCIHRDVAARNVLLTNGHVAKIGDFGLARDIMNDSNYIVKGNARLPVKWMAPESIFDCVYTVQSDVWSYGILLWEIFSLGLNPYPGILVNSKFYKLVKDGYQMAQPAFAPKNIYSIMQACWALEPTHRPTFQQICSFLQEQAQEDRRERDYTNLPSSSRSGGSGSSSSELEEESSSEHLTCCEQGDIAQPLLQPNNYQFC
Description: as §2

[6] = test system: BEL-7404 human hepatocellular carcinoma; test: In vivo anti-tumor efficacy, BEL-7404 xenograft; conditions: Liver cancer BEL-7404, nu/nu Balb/c mice, 50 mg/kg oral once per day, n = 2 × 3
Description: Female (nu/nu) Balb/c athymic mice at 4-6 weeks of age were injected subcutaneously (s.c.) with MDA-MB-231 human breast cancer cells, A549 human non-small cell lung cancer cells, U87-MG human glioblastoma cells, PC-3 human prostate cancer cells, HT-29 human colon cancer, BEL-7404 human hepatocellular carcinoma, or MKN-45 human gastric cancer cells (ATCC, 5×10^6 cells suspended in 100 μl DMEM medium). Treatment was initiated after the tumor mass grown from s.c. implanted tumor cells reached a median volume of 200-400 mm^3. Mice were randomized into groups with three in each group for small-sample efficacy tests such that the median tumor volume is nearly equal among all groups. […] Tumor volumes were assessed at least twice weekly by caliper measurement from the start of treatment. Tumor volume was calculated using the formula ½×L×W^2 (L: length of tumor's long axis, W: length of tumor's short axis). […]
The efficacy of compounds in reducing tumor growth was assessed by the index Tumor Growth Inhibition (TGI). TGI for a given treatment period was calculated using the group mean tumor volumes according to the formula: TGI=100×(VVehicle—group−VTreatment—group)÷VVehicle—group wherein VVehicle—group represents the mean tumor volume for the group treated with vehicle and VTreatment—group represents the mean tumor volume of the group treated with a compound.

[7] = test system: HT-29 human colon cancer; test: In vivo anti-tumor efficacy, HT-29 xenograft; conditions: Colon cancer HT-29, nu/nu Balb/c mice, 50 mg/kg oral once per day, n = 2 × 3
Description: Female (nu/nu) Balb/c athymic mice at 4-6 weeks of age were injected subcutaneously (s.c.) with MDA-MB-231 human breast cancer cells, A549 human non-small cell lung cancer cells, U87-MG human glioblastoma cells, PC-3 human prostate cancer cells, HT-29 human colon cancer, BEL-7404 human hepatocellular carcinoma, or MKN-45 human gastric cancer cells (ATCC, 5×10^6 cells suspended in 100 μl DMEM medium). Treatment was initiated after the tumor mass grown from s.c. implanted tumor cells reached a median volume of 200-400 mm^3. Mice were randomized into groups with three in each group for small-sample efficacy tests such that the median tumor volume is nearly equal among all groups. […] Tumor volumes were assessed at least twice weekly by caliper measurement from the start of treatment. Tumor volume was calculated using the formula ½×L×W^2 (L: length of tumor's long axis, W: length of tumor's short axis). […] The efficacy of compounds in reducing tumor growth was assessed by the index Tumor Growth Inhibition (TGI). TGI for a given treatment period was calculated using the group mean tumor volumes according to the formula: TGI=100×(VVehicle—group−VTreatment—group)÷VVehicle—group wherein VVehicle—group represents the mean tumor volume for the group treated with vehicle and VTreatment—group represents the mean tumor volume of the group treated with a compound.

T1 sequence (P09619 33-1106, species assumed): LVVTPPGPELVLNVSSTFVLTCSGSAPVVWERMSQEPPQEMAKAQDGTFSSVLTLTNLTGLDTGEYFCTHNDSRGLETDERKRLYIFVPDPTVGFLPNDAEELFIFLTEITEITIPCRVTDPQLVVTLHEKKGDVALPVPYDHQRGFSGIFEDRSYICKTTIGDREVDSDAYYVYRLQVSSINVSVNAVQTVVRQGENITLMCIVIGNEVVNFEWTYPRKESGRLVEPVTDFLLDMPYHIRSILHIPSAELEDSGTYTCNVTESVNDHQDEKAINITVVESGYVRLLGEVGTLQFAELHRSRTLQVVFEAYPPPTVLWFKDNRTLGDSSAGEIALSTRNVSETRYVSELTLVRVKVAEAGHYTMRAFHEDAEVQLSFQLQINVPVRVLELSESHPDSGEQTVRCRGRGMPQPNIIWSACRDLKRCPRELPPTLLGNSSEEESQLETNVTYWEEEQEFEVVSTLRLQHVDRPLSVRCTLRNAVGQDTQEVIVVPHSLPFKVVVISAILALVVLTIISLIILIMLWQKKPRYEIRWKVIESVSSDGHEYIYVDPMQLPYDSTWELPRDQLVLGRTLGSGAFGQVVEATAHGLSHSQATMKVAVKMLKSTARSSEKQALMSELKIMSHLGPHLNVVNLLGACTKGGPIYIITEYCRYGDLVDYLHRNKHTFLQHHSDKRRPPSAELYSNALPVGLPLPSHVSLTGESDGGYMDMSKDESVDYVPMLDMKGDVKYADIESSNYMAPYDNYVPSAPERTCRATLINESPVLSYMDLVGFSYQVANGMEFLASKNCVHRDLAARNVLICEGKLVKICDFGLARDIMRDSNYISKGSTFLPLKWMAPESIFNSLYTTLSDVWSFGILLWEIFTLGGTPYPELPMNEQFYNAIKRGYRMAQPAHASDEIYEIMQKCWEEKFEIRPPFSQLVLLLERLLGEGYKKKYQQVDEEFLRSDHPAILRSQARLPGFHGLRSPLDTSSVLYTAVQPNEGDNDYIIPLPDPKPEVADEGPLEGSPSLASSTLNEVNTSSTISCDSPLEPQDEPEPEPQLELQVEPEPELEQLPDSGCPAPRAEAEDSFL

SMILES | remaining activity at 0.1 µM [1] | Tumor Growth Inhibition (TGI) [2] | Tumor Growth Inhibition (TGI) [3] | c-Kit % Ctrl [4] | CSF-1R % Ctrl [5] | Tumor Growth Inhibition (TGI) [6] | Tumor Growth Inhibition (TGI) [7]
Cl.O=C(Nc1cccc(C(F)(F)F)c1)Nc1cccc2c1ccn2Cc1ccnc2[nH]ccc12 [Example 51, 1-(3-Trifluoromethylphenyl)-3-[1-(1H-pyrrolo[2,3-b]pyridin-4-ylmethyl)-1H-indol-4-yl]urea hydrochloride] | ≥ 70% | A (the TGI is greater or equal to 50%) | A (the TGI is greater or equal to 50%) | – | – | – | –
Cl.O=C(Nc1cc(Cl)ccc1F)Nc1cccc2c1ccn2Cc1ccnc2[nH]ccc12 [Example 56, 1-(2-Fluoro-5-chlorophenyl)-3-[1-(1H-pyrrolo[2,3-b]pyridin-4-ylmethyl)-1H-indol-4-yl]urea hydrochloride] | – | A (the TGI is greater or equal to 50%) | A (the TGI is greater or equal to 50%) | 3.8 % Ctrl | 3.4 % Ctrl | A (the TGI is greater or equal to 50%) | A (the TGI is greater or equal to 50%)
